The record followed here is ChEMBL document CHEMBL6087417, “The synthesis and antileukemic activity of 5-substituted thiazolyl urea derivatives” (Bioorg Med Chem Lett, 2025).

By pIC50 is commonly meant −log10 of the IC50, conventionally taken in molar units.

The structures appear in SMILES notation. pIC50: −log10 of the molar value.

In data set [1] the test system is MV4-11. Nature of the data set: Antileukemic activity against human MV4-11 cells assessed as inhibition of cell proliferation by MTS assay. The class given is functional, cell-based. A general note: Tetrazolium dyes change colour on reduction, which living cells bring about.
For data set [2], the system named is THP-1. The data set is described as follows: Antileukemic activity against human THP-1 cells assessed as inhibition of cell proliferation by MTS assay. The class given is functional, cell-based.
Data set [3] in a line: Cytotoxicity against PBMC (unknown origin) assessed as cell survival at 20 uM relative to control. The class given is toxicity, cell-based. As to conditions: read-out: Survival.

Consider `O=C(Nc1ncc(Cc2cccc(Br)c2)s1)N1CCN(c2cccc(F)n2)CC1`, for which the pIC50 in data set [1] and in data set [2] was less than 4.70 throughout.
Turning to `O=C(Nc1ncc(Cc2ccccc2Cl)s1)N1CCN(c2ccc(Cl)cc2)CC1`, the negative-log IC50 (pIC50) in data set [1] was 6.80; in data set [2], 5.95.
In the case of `O=C(Nc1ncc(Cc2ccccc2Br)s1)N1CCN(c2ccccc2)CC1`, the pIC50 in data set [1] was 5.84; in data set [2], 5.62.
For `Cc1cccc(Cc2cnc(NC(=O)N3CCN(c4ccc(Cl)cc4)CC3)s2)c1`, the results for the pIC50 in data set [1] and in data set [2] were 6.68 and less than 4.70, respectively.
Take `Nc1ccn([C@@H]2O[C@H](CO)[C@@H](O)[C@@H]2O)c(=O)n1` [CYTARABINE]: the negative logarithm of the IC50 (pIC50) in data set [2] was 6.34.
For the compound `O=C(Nc1ncc(Cc2cccc(C(F)(F)F)c2)s1)N1CCN(c2ccc(Cl)cc2)CC1`, the pIC50 in data set [1] is 6.52; in data set [2], 6.43.
In the case of `O=C(Nc1ncc(Cc2cccc(Br)c2)s1)N1CCN(c2cccc(Cl)n2)CC1`, the pIC50 in data set [1] is 4.78; in data set [2], less than 4.70.
For the compound `COc1ccc(Cc2cnc(NC(=O)N3CCN(c4ccc(Cl)cc4)CC3)s2)cc1`, the pIC50 in data set [1] is 7.01; in data set [2], 7.54. In addition, the viability at 20 µM in data set [3] stood at 91.7%.
On to `N#Cc1ccc(N2CCN(C(=O)Nc3ncc(Cc4cccc(Br)c4)s3)CC2)cc1`, for which the pIC50 is 6.05 in data set [1] and 6.18 in data set [2].
In the case of `O=C(Nc1ncc(Cc2cccc(Br)c2)s1)N1CCCN(c2ccc(Cl)cc2)CC1`, the pIC50 in data set [1] and in data set [2] was less than 4.70 in each case.
Regarding `Cc1cccc(N2CCN(C(=O)Nc3ncc(Cc4cccc(Br)c4)s3)CC2)n1`, the negative-log IC50 (pIC50) in data set [1] and in data set [2] was less than 4.70 each time.
Take `COc1ccc(Cc2cnc(NC(=O)N3C4CC[C@@H]3CN(c3ccc(Cl)cc3)C4)s2)cc1`: the values for the pIC50 in data set [1] and in data set [2] were 6.51 and 6.54, respectively.
Take `CC1CCN(C(=O)Nc2ncc(Cc3ccccc3Br)s2)CC1`: the pIC50 in data set [1] is 5.72; in data set [2], 5.42.
Turning to `CC1CN(C(=O)Nc2ncc(Cc3cccc(Br)c3)s2)CCN1c1ccc(Cl)cc1` (configuration not stated), the pIC50 in data set [1] was 4.83; in data set [2] it was less than 4.70.
In the case of `O=C(Nc1ncc(Cc2ccc(Br)cc2)s1)N1CCN(c2ccccc2)CC1`, the pIC50 is 5.73 in data set [1] and 5.39 in data set [2].
With `O=C(Nc1ncc(Cc2cccc(Br)c2)s1)N1CCN(c2ccc(F)cc2)CC1`, the pIC50 in data set [1] is 6.77; in data set [2] it was 6.72.
For `O=C(Nc1ncc(Cc2ccc(C(F)(F)F)cc2)s1)N1CCN(c2ccc(Cl)cc2)CC1` the same measures were 6.64 and 6.74.
In the case of `O=C(Nc1ncc(Cc2cccc(Br)c2)s1)N1CCN(S(=O)(=O)c2ccc(Cl)cc2)CC1`, the pIC50 in data set [1] and in data set [2] was less than 4.70 each time.
For the compound `Cc1ccnc(N2CCN(C(=O)Nc3ncc(Cc4cccc(Br)c4)s3)CC2)c1`, the pIC50 in data set [1] was 5.27; in data set [2], less than 4.70.
In the case of `O=C(Nc1ncc(Cc2cccc(Br)c2)s1)N1CCN(c2ccc(C(F)(F)F)cc2)CC1`, the pIC50 in data set [1] was 5.35; in data set [2], less than 4.70.
With `O=C(Nc1ncc(Cc2ccc(Br)cc2)s1)N1CCN(c2ccc(Cl)cc2)CC1`, the figures for the pIC50 in data set [1] and in data set [2] were 6.26 and 6.43, respectively.
For the compound `O=C(Nc1ncc(Cc2cccc(Br)c2)s1)N1CCN(c2ccccc2)CC1`, the results for the pIC50 in data set [1] and in data set [2] were 5.88 and 5.39, respectively.
Turning to `O=C(Nc1ncc(Cc2cccc(Br)c2)s1)N1CCN(Cc2ccc(Cl)cc2)CC1`, the pIC50 in data set [1] and in data set [2] was less than 4.70 in each case.
For `O=C(Nc1ncc(Cc2cccc(Br)c2)s1)N1CCN(c2cc(C(F)(F)F)cc(C(F)(F)F)c2)CC1`, the pIC50 in data set [1] and in data set [2] was less than 4.70 in each case.
For the compound `CCc1nc(C(N)=O)c(Nc2ccc(N3CCC(N4CCN(C)CC4)CC3)c(OC)c2)nc1NC1CCOCC1` [GILTERITINIB], the pIC50 in data set [1] is 7.62.
As for `O=C(Nc1ncc(Cc2cccc(Br)c2)s1)N1CCN(C(=O)c2ccc(Cl)cc2)CC1`, the pIC50 in data set [1] and in data set [2] was less than 4.70 in each case.
Consider `O=C(Nc1ncc(Cc2cccc(Br)c2)s1)N1CCN(c2cccc(Br)n2)CC1`, for which the pIC50 in data set [1] and in data set [2] was less than 4.70 each time.
As to `O=C(Nc1ncc(Cc2cccc(Br)c2)s1)N1CCN(c2cc(Cl)cc(Cl)c2)CC1`, the pIC50 in data set [1] and in data set [2] was less than 4.70 throughout.
With `O=C(Nc1ncc(Cc2cccc(Br)c2)s1)N1CC2CC1CN2c1ccc(Cl)cc1` (configuration not stated), the pIC50 was 4.96 in data set [1] and less than 4.70 in data set [2].
As to `O=C(Nc1ncc(Cc2ccc(Br)cc2)s1)N1CCN(c2ccc(O)cc2)CC1`, the pIC50 in data set [1] and in data set [2] was less than 4.70 each time.
As for `O=C(Nc1ncc(Cc2cccc(Cl)c2)s1)N1CCN(c2ccc(Cl)cc2)CC1`, the negative logarithm of the IC50 (pIC50) in data set [1] is 6.41; in data set [2], 6.70.
With `COc1cccc(Cc2cnc(NC(=O)N3CCN(c4ccc(Cl)cc4)CC3)s2)c1`, the results for the pIC50 in data set [1] and in data set [2] were 6.89 and 6.68, respectively.
With `O=C(Nc1ncc(Cc2cccc(Br)c2)s1)N1CCN(c2cccc(C(F)(F)F)n2)CC1`, the pIC50 in data set [1] and in data set [2] was less than 4.70 each time.
For the compound `CC1CCN(C(=O)Nc2ncc(Cc3ccc(Br)cc3)s2)CC1`, the figures for the pIC50 in data set [1] and in data set [2] were 5.83 and 5.86, respectively.
In the case of `O=C(Nc1ncc(Cc2cccc(Br)c2)s1)N1CCN(c2cccc(Cl)c2)CC1`, the pIC50 in data set [1] was 5.00; in data set [2] it was less than 4.70.
`CCOc1cccc(Cc2cnc(NC(=O)N3CCN(c4ccc(Cl)cc4)CC3)s2)c1`: the pIC50 in data set [1] and in data set [2] was less than 4.70 each time.
For `COc1ccccc1Cc1cnc(NC(=O)N2CCN(c3ccc(Cl)cc3)CC2)s1`, the pIC50 in data set [1] is 6.72; in data set [2] it was 6.44.
Turning to `O=C(Nc1ncc(Cc2cccc(Br)c2)s1)N1CCN(c2ccc(Cl)cc2)CC1`, the pIC50 is 6.59 in data set [1] and 6.48 in data set [2].
For `O=C(Nc1ncc(Cc2cccc(Br)c2)s1)N1CCN(c2ccc(Cl)cn2)CC1` the same measures were 6.21 and 6.17.
As for `COCc1cccc(Cc2cnc(NC(=O)N3CCN(c4ccc(Cl)cc4)CC3)s2)c1`, the pIC50 in data set [1] and in data set [2] was 6.89 in each case.
As for `O=C(Nc1ncc(Cc2cccc(Br)c2)s1)N1CCN(c2ccccc2Cl)CC1`, the pIC50 in data set [1] is 5.88; in data set [2] it was 5.79.
On to `O=C(Nc1ncc(Cc2cccc(Br)c2)s1)N1CCN(c2ccc([N+](=O)[O-])cc2)CC1`, for which the pIC50 in data set [1] was 5.69; in data set [2], less than 4.70.
The corresponding values for `CC1CCN(C(=O)Nc2ncc(Cc3cccc(Br)c3)s2)CC1` are 5.62 and 5.49.
Turning to `Cc1ccc(N2CCN(C(=O)Nc3ncc(Cc4ccc(Br)cc4)s3)CC2)cc1`, the pIC50 in data set [1] is 5.95; in data set [2], 5.75.
With `O=C(Nc1ncc(Cc2ccccc2Br)s1)N1CCN(c2ccc(Cl)cc2)CC1`, the values for the pIC50 in data set [1] and in data set [2] were 5.95 and 5.89, respectively.
As to `O=C(Nc1ncc(Cc2ccc(Cl)cc2)s1)N1CCN(c2ccc(Cl)cc2)CC1`, the pIC50 in data set [1] was 6.68; in data set [2] it was 6.77.
Regarding `O=C(Nc1ncc(Cc2cccc(O)c2)s1)N1CCN(c2ccc(Cl)cc2)CC1`, the pIC50 in data set [1] was 6.85; in data set [2] it was 6.96.
For `O=C(Nc1ncc(Cc2cccc(Br)c2)s1)N1C2CC[C@@H]1CN(c1ccc(Cl)cc1)C2` the same measures were 5.01 and less than 4.70.
The corresponding values for `COc1ccc(Cc2cnc(NC(=O)N3CCCN(c4ccc(Cl)cc4)CC3)s2)cc1` are 6.51 and 6.57.
For `O=C(Nc1ncc(Cc2cccc(OCCCN3CCOCC3)c2)s1)N1CCN(c2ccc(Cl)cc2)CC1` the same measures were less than 4.70 and less than 4.70.
As to `Cc1ccc(N2CCN(C(=O)Nc3ncc(Cc4ccccc4Br)s3)CC2)cc1`, the results for the pIC50 in data set [1] and in data set [2] were 5.55 and 5.02, respectively.
For the compound `CC(C)Oc1cccc(Cc2cnc(NC(=O)N3CCN(c4ccc(Cl)cc4)CC3)s2)c1`, the pIC50 in data set [1] and in data set [2] was less than 4.70 in each case.
For `Cc1ccc(N2CCN(C(=O)Nc3ncc(Cc4cccc(Br)c4)s3)CC2)cc1`, the pIC50 in data set [1] was 5.54; in data set [2], 5.46.
Turning to `O=C(Nc1ncc(Cc2ccccc2C(F)(F)F)s1)N1CCN(c2ccc(Cl)cc2)CC1`, the results for the pIC50 in data set [1] and in data set [2] were 5.30 and less than 4.70, respectively.
